Reference: patent EP1108430A1, “CALCIUM CHANNEL ANTAGONISTS” (Nippon Shinyaku Co., Ltd., priority 1998, dated 2000)

What was measured:
[1] = test system: dopamine release from the rat striatum; assay: In vivo dopamine release from the striatum (microdialysis); conditions: for effect on dopamine release: rat, in vivo
Protocol: The release of dopamine from the rat striatum was measured by the in vivo microdialysis method. A microdialysis probe fitted with a microinjection cannula was inserted into the striatum of an 8∼10·week·old male SD rat and the striatum was perfused with Ringer's solution at a rate of 2 µl/min.
Beginning 2 hours after the start of perfusion, the perfusate was recovered at a 20-minute interval and the dopamine in each perfusate was measured with a high-performance liquid chromatography-electrochemical detector. The drug was perfused into the striatum through the microdialysis probe or microinjected into the striatum via the microinjection cannula. The effect of the drug on the basal dopamine release was evaluated by comparing the values before and after stimulation and a statistical analysis was made by Dunnett's test. Then, to evaluate the effect of Compound 1A on KCl·stimulated dopamine release, the amount of dopamine released in the presence of Compound 1A (10 µM) (ipsilateral striatum) was compared with the amount of KCl-stimulated dopamine release in the absence of Compound 1A (contralateral striatum) and the difference was statistically analyzed by paired t-test.
Therefore, with a microdialysis probe inserted bilaterally, one of the striatum was perfused with Ringer's solution (control side) and the other striatum with Compound 1A (10 µM). K^+ stimulation, 25∼80 mM, was consecutively given at a 20-minute interval.

[2] = test system: mouse cerebral cortex-derived primary cultured neurons; assay: Elevation of intracellular calcium ion concentration under high-potassium stimulation (fura-2/AM 2-wavelength fluorescence); assay type: cell-based; conditions: 1 - 30 µM; added 10 minutes before the second stimulation; Fig. 2; Dunnett's test, p<0.01
Protocol: In the dish (the bottom opening fitted with cover glass) used for the measurement of calcium ion concentration, neurons on day 5 of culture were allowed to take up the fluorescent calcium probe fura-2/AM before determination. Thus, cultured neurons were incubated in 10 mM HEPES-NaOH buffer (pH 7.05) containing 10 µM fura-2/AM, 5.4 mM KC1, 130 mM NaCl, 2.5 mM CaCl2 and 5.5 mM D-glucose at 37°C for 30 minutes to let fura-2/AM taken up in the cells. Thereafter, incubation was further continued for 30 minutes, whereby the fura-2/AM taken up in the cells was converted to fura-2 by endogenous esterase activity. […]
The calcium ion concentration was determined by the method of Grynkiewicz et al. (1985). Thus, by fluorescent microscope-image processing, the calcium ion concentration was determined from the fluorescence intensities of fura - 2/Ca^2+ at the exciting wavelengths of 340 nm and 380 nm. Using Argus-50/CA System (Hamamatsu Photonics), a calibration curve constructed beforehand was transformed to find the intracellular calcium ion concentration from the fluorescence intensity ratio.
The high-potassium stimulus was given twice, 15 minutes apart and for 15 seconds each, and the ratio of increase in free calcium ion concentration in response to the stimulations was calculated. […]

[3] = test system: L-type Ca^2+ channel; assay type: cell-based, mouse; conditions: 3∼30 µM; Dunnett's test; Fig. 1
[4] = target: P/Q-type Ca^2+ channel (Mus musculus, UniProt P97445); assay: KCl-induced NOS activation in the presence of 1 µM nifedipine (response mediated by the P/Q-type channel); assay type: cell-based
Chain of P/Q-type Ca^2+ channel (P97445 whole entry): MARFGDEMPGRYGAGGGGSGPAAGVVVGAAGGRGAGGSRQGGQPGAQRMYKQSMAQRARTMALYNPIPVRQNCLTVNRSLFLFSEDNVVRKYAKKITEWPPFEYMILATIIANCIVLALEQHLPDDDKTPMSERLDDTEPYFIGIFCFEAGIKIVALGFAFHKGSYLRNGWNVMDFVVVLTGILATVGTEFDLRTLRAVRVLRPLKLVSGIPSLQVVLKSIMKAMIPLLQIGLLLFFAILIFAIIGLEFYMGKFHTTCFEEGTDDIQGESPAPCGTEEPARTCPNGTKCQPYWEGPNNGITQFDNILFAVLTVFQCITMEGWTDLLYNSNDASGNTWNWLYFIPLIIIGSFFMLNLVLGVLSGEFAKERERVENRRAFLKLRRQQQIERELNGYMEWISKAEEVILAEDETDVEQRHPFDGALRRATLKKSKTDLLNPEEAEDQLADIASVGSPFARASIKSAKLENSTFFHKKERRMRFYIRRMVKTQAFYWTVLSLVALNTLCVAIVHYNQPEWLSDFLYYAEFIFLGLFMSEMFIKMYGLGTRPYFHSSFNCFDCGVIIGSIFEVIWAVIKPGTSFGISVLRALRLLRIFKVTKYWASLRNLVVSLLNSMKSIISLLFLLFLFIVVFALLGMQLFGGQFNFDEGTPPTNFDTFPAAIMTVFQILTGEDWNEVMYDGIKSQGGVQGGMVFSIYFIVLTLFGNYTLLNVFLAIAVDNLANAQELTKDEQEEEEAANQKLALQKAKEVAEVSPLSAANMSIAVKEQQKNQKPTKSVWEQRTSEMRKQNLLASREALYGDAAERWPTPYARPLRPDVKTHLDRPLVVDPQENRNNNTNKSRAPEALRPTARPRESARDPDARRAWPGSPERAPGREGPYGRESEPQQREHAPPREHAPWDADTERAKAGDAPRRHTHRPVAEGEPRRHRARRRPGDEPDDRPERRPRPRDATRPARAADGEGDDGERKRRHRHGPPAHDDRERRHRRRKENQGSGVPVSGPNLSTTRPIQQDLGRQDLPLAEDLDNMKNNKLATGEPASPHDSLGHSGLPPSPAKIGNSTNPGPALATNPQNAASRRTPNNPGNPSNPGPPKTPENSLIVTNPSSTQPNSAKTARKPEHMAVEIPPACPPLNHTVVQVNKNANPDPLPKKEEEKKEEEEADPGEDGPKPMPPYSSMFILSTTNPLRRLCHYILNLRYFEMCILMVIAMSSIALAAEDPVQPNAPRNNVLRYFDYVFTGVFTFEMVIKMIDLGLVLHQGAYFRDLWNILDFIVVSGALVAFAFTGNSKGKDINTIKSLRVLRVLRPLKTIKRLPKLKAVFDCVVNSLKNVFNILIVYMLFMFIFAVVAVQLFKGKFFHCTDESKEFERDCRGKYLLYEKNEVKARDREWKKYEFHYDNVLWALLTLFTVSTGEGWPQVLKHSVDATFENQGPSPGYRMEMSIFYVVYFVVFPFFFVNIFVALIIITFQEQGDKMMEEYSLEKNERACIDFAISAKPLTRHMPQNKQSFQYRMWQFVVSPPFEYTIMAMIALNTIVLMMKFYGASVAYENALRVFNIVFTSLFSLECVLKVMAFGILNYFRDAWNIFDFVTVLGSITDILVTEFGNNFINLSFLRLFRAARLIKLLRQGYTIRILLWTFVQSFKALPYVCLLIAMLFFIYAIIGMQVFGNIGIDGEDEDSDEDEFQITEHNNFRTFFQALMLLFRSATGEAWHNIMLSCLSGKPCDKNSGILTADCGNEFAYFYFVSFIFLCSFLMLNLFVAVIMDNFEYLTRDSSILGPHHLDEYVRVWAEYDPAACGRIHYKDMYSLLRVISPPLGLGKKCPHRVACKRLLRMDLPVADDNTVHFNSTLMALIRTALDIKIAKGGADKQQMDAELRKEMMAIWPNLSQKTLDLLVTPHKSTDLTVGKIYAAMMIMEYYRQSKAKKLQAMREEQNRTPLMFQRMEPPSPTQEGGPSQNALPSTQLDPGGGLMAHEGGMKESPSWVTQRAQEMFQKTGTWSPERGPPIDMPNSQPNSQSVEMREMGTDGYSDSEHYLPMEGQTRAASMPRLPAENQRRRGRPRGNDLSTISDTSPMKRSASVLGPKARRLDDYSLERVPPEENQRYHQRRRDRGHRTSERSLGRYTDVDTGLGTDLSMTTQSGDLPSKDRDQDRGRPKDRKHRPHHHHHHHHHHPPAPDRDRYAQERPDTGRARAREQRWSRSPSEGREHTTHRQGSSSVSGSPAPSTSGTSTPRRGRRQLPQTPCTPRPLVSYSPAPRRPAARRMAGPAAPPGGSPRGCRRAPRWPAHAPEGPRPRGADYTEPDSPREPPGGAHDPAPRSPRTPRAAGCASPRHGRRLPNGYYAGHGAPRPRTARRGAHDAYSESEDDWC

[5] = test system: nitric oxide synthase (NOS); assay: cells; assay type: cell-based, mouse

`Cc1nc(OCCCCCN2CCCCC2)cc(-c2ccc(F)cc2)n1` [Compound 1A, 4-(4-fluorophenyl)-2-methyl-6-(5-piperidinopentyloxy)pyrimidine] was tested, and the “inhibition of dopamine release at 80 mM KCl” value ([1]; 10 µM perfused into the striatum, 80 mM KCl, Fig. 3, p<0.05, paired t-test) was “inhibited dopamine release significantly”, the “inhibitory effect on dopamine release under K^+ stimulation” value ([1]; 10 µM perfused into the striatum, K^+ stimulation 25∼80 mM at a 20-minute interval, versus contralateral control side) was “marked inhibitory effects on dopamine release with an increasing potassium concentration” and the “inhibition of the high-potassium-stimulated increase in intracellular calcium ion concentration” value [2] was “inhibit the high-potassium-stimulated increase in intracellular calcium ion concentration in a concentration-dependent manner”. For the same molecule, the “inhibition of the NOS activation in the presence of 0.1 µM ω-agatoxin IVA (the response mediated by the L-type Ca^2+ channel)” value [3] was “significant (P<0.01) and concentration-dependent inhibitions”, the “inhibition of the response mediated by the P/Q-type Ca^2+ channel (NOS activation in the presence of 1 µM nifedipine)” value ([4]; 10 µM) was “completely inhibited” and the “inhibition of the NOS activation in the presence of 1 µM nifedipine (the response mediated by the P/Q-type Ca^2+ channel)” value ([4]; 3∼30 µM, Dunnett's test, Fig. 1) was “significant (P<0.01) and concentration-dependent inhibitions”.

ω-agatoxin IVA [reference compound] was tested, and the “effect on dopamine release” value [1] was “significant decrease (p<0.01)” and the “inhibition of NOS activated on high-potassium stimulation of neurons” value ([5]; 0.1 µM) was “about 53%”.

For ω-conotoxin GVIA [reference compound], the “effect on dopamine release” value [1] was “significant decrease (p<0.01)” and the “effect on the NOS activation by KCl stimulation” value ([5]; 5 µM) was “substantially no effect”.

`COC(=O)C1=C(C)NC(C)=C(C(=O)OC)C1c1ccccc1[N+](=O)[O-]` [nifedipine] showed an inhibition at 1 µM ([5]; Mus musculus, Neuron, read-out: inhibition of NOS activated on high-potassium stimulation of neurons) of ~56%.
